Earlier results on two molecules are cited in patent US4782898A, “Determining residual oil saturation using carbon 14 labeled carbon dioxide” (priority 1986, dated 1988).

As to `O=C=O` [CO2, carbon dioxide], the “distribution coefficient, Ki (ratio of concentration of tracer in the oil phase to that in the water phase)” value is “about 2”.

On to `O=[14C]=O` [carbon 14 labeled CO2], for which the “distribution coefficient, Ki (ratio of concentration of tracer in the oil phase to that in the water phase)” value is “about 2”.
